We go through four compounds from publication doi:10.1101/396440v2, “Large-scale chemical-genetics yields new Mycobacterium tuberculosis inhibitor classes” (biorxiv, 2019).

SMILES strings stand for the structures.

The target of one assay is T1, EfpA (Mycolicibacterium smegmatis, UniProt A0QVL8).
T1 construct: gene MSMEG_2619; native efflux pump in intact M. smegmatis cells; ethidium bromide efflux read-out
The assay can be described thus: ethidium bromide efflux (fluorescence) in M. smegmatis cells. The class given is cell-based.

For a further assay, the target named is T2, Mtb DNA gyrase (Mycobacterium tuberculosis, UniProt P9WG45+P9WG47).
T2 construct: gene gyrA; in vitro DNA gyrase; source details in supplement
The assay can be described thus: DNA supercoiling/decatenation inhibition, agarose gel. In kind it is biochemical.

For another assay, the target named is Mtb's efpA homolog (Mycobacterium tuberculosis, UniProt P9WJY5). The conditions noted are these: high-affinity interaction lost on efpA deletion.
Mtb's efpA homolog, sequence (P9WJY5 whole entry): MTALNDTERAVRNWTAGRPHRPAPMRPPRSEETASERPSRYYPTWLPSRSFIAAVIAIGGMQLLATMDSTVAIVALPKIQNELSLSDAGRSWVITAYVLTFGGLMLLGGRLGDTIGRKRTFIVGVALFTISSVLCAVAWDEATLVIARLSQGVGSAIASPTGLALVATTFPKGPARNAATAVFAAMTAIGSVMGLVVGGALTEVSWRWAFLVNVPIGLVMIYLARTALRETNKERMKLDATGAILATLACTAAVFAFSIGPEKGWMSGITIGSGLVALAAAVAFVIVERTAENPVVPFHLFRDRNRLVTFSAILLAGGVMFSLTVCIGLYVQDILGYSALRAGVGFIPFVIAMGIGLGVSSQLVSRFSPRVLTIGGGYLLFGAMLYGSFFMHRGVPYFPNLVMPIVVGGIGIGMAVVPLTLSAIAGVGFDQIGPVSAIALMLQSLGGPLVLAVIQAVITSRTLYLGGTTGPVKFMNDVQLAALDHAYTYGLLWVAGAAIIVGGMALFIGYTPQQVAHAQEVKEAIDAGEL

T2 sequence (P9WG45 whole entry): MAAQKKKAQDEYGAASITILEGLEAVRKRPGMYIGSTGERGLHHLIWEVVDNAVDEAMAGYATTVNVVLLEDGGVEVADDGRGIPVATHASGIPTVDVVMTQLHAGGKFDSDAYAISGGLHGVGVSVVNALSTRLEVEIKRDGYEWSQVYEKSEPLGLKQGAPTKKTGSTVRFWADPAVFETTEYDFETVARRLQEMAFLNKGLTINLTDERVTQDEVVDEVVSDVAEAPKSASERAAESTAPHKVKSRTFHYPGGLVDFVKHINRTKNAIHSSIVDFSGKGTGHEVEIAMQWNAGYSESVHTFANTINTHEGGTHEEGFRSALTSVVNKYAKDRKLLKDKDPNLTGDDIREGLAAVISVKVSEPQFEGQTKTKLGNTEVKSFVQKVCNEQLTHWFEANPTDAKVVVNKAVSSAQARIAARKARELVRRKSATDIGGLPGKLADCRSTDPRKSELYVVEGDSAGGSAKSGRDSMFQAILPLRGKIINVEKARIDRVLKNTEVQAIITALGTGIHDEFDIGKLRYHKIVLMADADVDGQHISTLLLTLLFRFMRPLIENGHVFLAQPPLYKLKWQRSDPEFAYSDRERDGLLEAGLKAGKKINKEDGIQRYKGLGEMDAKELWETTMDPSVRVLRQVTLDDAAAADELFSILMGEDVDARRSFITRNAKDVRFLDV
T2 sequence (P9WG47 2-838): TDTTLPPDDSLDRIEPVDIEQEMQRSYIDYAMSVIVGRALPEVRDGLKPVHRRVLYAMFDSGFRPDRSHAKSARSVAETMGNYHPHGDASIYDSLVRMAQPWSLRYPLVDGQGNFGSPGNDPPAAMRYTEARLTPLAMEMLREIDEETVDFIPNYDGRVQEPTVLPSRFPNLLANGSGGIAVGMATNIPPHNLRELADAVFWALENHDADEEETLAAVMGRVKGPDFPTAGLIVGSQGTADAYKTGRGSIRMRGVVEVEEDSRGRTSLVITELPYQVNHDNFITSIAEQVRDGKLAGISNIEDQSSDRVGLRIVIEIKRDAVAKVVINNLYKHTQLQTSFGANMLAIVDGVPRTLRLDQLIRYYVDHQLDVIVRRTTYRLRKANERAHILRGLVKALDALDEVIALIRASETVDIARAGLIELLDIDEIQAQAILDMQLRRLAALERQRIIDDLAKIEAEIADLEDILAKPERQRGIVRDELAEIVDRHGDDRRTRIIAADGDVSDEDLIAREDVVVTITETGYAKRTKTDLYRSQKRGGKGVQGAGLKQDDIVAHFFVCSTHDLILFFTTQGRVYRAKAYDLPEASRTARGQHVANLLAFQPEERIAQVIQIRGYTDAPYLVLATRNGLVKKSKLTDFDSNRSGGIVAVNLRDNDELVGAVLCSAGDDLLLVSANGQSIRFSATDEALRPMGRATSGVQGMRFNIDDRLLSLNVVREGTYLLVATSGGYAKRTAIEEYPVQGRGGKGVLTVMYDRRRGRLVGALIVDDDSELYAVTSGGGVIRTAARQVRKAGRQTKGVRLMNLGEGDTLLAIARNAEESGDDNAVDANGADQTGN

The term IC50 denotes the point on the concentration scale where inhibition reaches its midpoint. Low readings indicate greater potency, high ones weaker potency. Compound `CC(C)=CC1C(C(=O)Nc2ccc(Br)cn2)C1(C)C` (mixture of isomers) [BRD-8000] had an IC50 against EfpA of 38 µM.

Take `O=C1c2ccccc2-n2c1nc1ccccc1c2=O` [tryptanthrin]: the “DNA supercoiling/decatenation inhibition, agarose gel” value at Mtb DNA gyrase is on record as “we validated it to be a DNA gyrase inhibitor”.

`CC(C)=C[C@@H]1[C@@H](C(=O)Nc2cccc(Br)n2)C1(C)C` [(R,R)-trans isomer of BRD-8000.2] registered an IC50 against EfpA of 500 µM.

The compound `CC(C)=C[C@H]1[C@H](C(=O)Nc2cccc(Br)n2)C1(C)C` [BRD-8000.2] yielded an IC50 on EfpA of 15 µM. Moreover, the “interaction with M. smegmatis efpA deletion strain complemented with Mtb efpA” value on Mtb's efpA homolog is on record as “This highaffinity interaction is restored by episomal complementation of Mtb’s efpA homolog”.
